According to the CheMixHub viscosity set:
Where “and” joins values, the source holds several entries; their conditions need not be identical. Equal values may be shown once. ± gives the uncertainty stated by the source.

Assay: xn = mol fraction of the nth substance listed

CCNCCO + CCCCOCCO
viscosity, 101.33 kPa
Details | 293.15 K | 298.15 K | 303.15 K | 308.15 K | 313.15 K | 318.15 K | 323.15 K
x1 = 0.1 | 3.962 ± 0.086 mPa·s | 3.42 ± 0.074 mPa·s | 2.977 ± 0.064 mPa·s | 2.61 ± 0.056 mPa·s | 2.304 ± 0.053 mPa·s | 2.046 ± 0.052 mPa·s | 1.828 ± 0.052 mPa·s
x1 = 0.13 | 3.96 ± 0.09 mPa·s | 3.42 ± 0.08 mPa·s | 2.98 ± 0.07 mPa·s | 2.61 ± 0.06 mPa·s | 2.3 ± 0.1 mPa·s | 2.05 ± 0.05 mPa·s | 1.83 ± 0.04 mPa·s
x1 = 0.2 | 4.804 ± 0.11 mPa·s | 4.103 ± 0.088 mPa·s | 3.536 ± 0.076 mPa·s | 3.07 ± 0.066 mPa·s | 2.685 ± 0.058 mPa·s | 2.365 ± 0.053 mPa·s | 2.096 ± 0.053 mPa·s
x1 = 0.36 | 5.75 ± 0.13 mPa·s | 4.86 ± 0.11 mPa·s | 4.15 ± 0.09 mPa·s | 3.57 ± 0.08 mPa·s | 3.09 ± 0.07 mPa·s | 2.7 ± 0.1 mPa·s | 2.38 ± 0.05 mPa·s
x1 = 0.4 | 5.753 ± 0.12 mPa·s | 4.86 ± 0.11 mPa·s | 4.146 ± 0.089 mPa·s | 3.567 ± 0.077 mPa·s | 3.094 ± 0.066 mPa·s | 2.703 ± 0.058 mPa·s | 2.377 ± 0.053 mPa·s
x1 = 0.5 | 6.822 ± 0.15 mPa·s | 5.698 ± 0.12 mPa·s | 4.811 ± 0.1 mPa·s | 4.101 ± 0.088 mPa·s | 3.527 ± 0.076 mPa·s | 3.057 ± 0.065 mPa·s | 2.67 ± 0.057 mPa·s
x1 = 0.57 | 7.99 ± 0.18 mPa·s | 6.61 ± 0.15 mPa·s | 5.53 ± 0.12 mPa·s | 4.67 ± 0.1 mPa·s | 3.98 ± 0.09 mPa·s | 3.43 ± 0.08 mPa·s | 2.97 ± 0.07 mPa·s
x1 = 0.6 | 7.994 ± 0.17 mPa·s | 6.608 ± 0.14 mPa·s | 5.525 ± 0.12 mPa·s | 4.67 ± 0.1 mPa·s | 3.984 ± 0.085 mPa·s | 3.429 ± 0.073 mPa·s | 2.975 ± 0.064 mPa·s
x1 = 0.7 | 9.303 ± 0.2 mPa·s | 7.606 ± 0.16 mPa·s | 6.3 ± 0.14 mPa·s | 5.278 ± 0.11 mPa·s | 4.466 ± 0.095 mPa·s | 3.815 ± 0.082 mPa·s | 3.288 ± 0.07 mPa·s
x1 = 0.8 | 10.71 ± 0.23 mPa·s and 12.33 ± 0.26 mPa·s | 8.67 ± 0.19 mPa·s and 9.873 ± 0.21 mPa·s | 7.112 ± 0.15 mPa·s and 8.025 ± 0.17 mPa·s | 5.907 ± 0.13 mPa·s and 6.61 ± 0.14 mPa·s | 4.962 ± 0.11 mPa·s and 5.51 ± 0.12 mPa·s | 4.21 ± 0.09 mPa·s and 4.644 ± 0.099 mPa·s | 3.606 ± 0.077 mPa·s and 3.953 ± 0.084 mPa·s
x1 = 0.9 | 14.15 ± 0.3 mPa·s | 11.21 ± 0.24 mPa·s | 9.023 ± 0.19 mPa·s | 7.368 ± 0.16 mPa·s | 6.098 ± 0.13 mPa·s | 5.103 ± 0.11 mPa·s | 4.316 ± 0.092 mPa·s

CCOC(=O)CCl + O=C1CCCCC1
viscosity [mPa·s], 101.3 kPa
Details | x1 = 0.1084 | x1 = 0.2069 | x1 = 0.306 | x1 = 0.3993 | x1 = 0.5032 | x1 = 0.6002 | x1 = 0.6945 | x1 = 0.7947 | x1 = 0.8975
298.15 K | 1.745 ± 0.022 | 1.604 ± 0.02 | 1.493 ± 0.019 | 1.403 ± 0.018 | 1.352 ± 0.017 | 1.283 ± 0.017 | 1.23 ± 0.016 | 1.191 ± 0.016 | 1.144 ± 0.015
303.15 K | 1.595 ± 0.02 | 1.47 ± 0.019 | 1.376 ± 0.018 | 1.298 ± 0.017 | 1.244 ± 0.016 | 1.184 ± 0.015 | 1.139 ± 0.015 | 1.101 ± 0.015 | 1.058 ± 0.014
308.15 K | 1.444 ± 0.019 | 1.336 ± 0.017 | 1.259 ± 0.016 | 1.19 ± 0.016 | 1.135 ± 0.015 | 1.087 ± 0.014 | 1.047 ± 0.014 | 1.011 ± 0.013 | 0.972 ± 0.013

CCCCOCCO + OCCOCCOCCO
101 kPa
Details | viscosity [mPa·s]
293.15 K, x1 = 0.048 | 36.14 ± 0.23
293.15 K, x1 = 0.111 | 30.89 ± 0.2
293.15 K, x1 = 0.1958 | 25.06 ± 0.15
293.15 K, x1 = 0.3023 | 19.11 ± 0.12
293.15 K, x1 = 0.4053 | 14.62 ± 0.087
293.15 K, x1 = 0.4492 | 12.94 ± 0.077
293.15 K, x1 = 0.4988 | 11.29 ± 0.067
293.15 K, x1 = 0.5502 | 9.833 ± 0.058
293.15 K, x1 = 0.5922 | 8.791 ± 0.052
293.15 K, x1 = 0.6915 | 6.755 ± 0.041
293.15 K, x1 = 0.7959 | 5.249 ± 0.032
293.15 K, x1 = 0.8902 | 4.37 ± 0.027
293.15 K, x1 = 0.9457 | 3.879 ± 0.024
298.15 K, x1 = 0.0536 | 30.5 ± 0.2
298.15 K, x1 = 0.1049 | 27.17 ± 0.17
298.15 K, x1 = 0.2064 | 21.51 ± 0.13
298.15 K, x1 = 0.2953 | 17.55 ± 0.11
298.15 K, x1 = 0.3982 | 13.71 ± 0.082
298.15 K, x1 = 0.4518 | 12.06 ± 0.072
298.15 K, x1 = 0.5018 | 10.7 ± 0.064
298.15 K, x1 = 0.5494 | 9.463 ± 0.056
298.15 K, x1 = 0.5998 | 8.336 ± 0.05
298.15 K, x1 = 0.6966 | 6.451 ± 0.039
298.15 K, x1 = 0.7997 | 4.971 ± 0.031
298.15 K, x1 = 0.8916 | 3.873 ± 0.024
298.15 K, x1 = 0.9411 | 3.369 ± 0.021
303.15 K, x1 = 0.0501 | 26.39 ± 0.17
303.15 K, x1 = 0.1015 | 23.75 ± 0.15
303.15 K, x1 = 0.197 | 19.42 ± 0.12
303.15 K, x1 = 0.3006 | 15.59 ± 0.095
303.15 K, x1 = 0.4006 | 12.58 ± 0.076
303.15 K, x1 = 0.4531 | 11.14 ± 0.067
303.15 K, x1 = 0.4972 | 10.12 ± 0.061
303.15 K, x1 = 0.5469 | 8.986 ± 0.054
303.15 K, x1 = 0.6012 | 7.888 ± 0.047
303.15 K, x1 = 0.6893 | 6.343 ± 0.039
303.15 K, x1 = 0.803 | 4.661 ± 0.029
303.15 K, x1 = 0.89 | 3.59 ± 0.022
303.15 K, x1 = 0.9416 | 3.02 ± 0.019

COC(=O)c1ccccc1 + CC(C)O
viscosity [mPa·s], 101 kPa
Details | x1 = 0.0634 | x1 = 0.1321 | x1 = 0.2069 | x1 = 0.2887 | x1 = 0.3784 | x1 = 0.4773 | x1 = 0.5868 | x1 = 0.7089 | x1 = 0.8456
303.15 K | 1.655 ± 0.04 | 1.656 ± 0.04 | 1.658 ± 0.04 | 1.659 ± 0.04 | 1.661 ± 0.04 | 1.663 ± 0.04 | 1.664 ± 0.04 | 1.666 ± 0.04 | 1.668 ± 0.04
308.15 K | 1.495 ± 0.037 | 1.495 ± 0.037 | 1.496 ± 0.037 | 1.496 ± 0.037 | 1.497 ± 0.037 | 1.498 ± 0.037 | 1.498 ± 0.037 | 1.499 ± 0.037 | 1.5 ± 0.037
313.15 K | 1.323 ± 0.033 | 1.326 ± 0.033 | 1.33 ± 0.033 | 1.335 ± 0.033 | 1.339 ± 0.033 | 1.344 ± 0.033 | 1.35 ± 0.033 | 1.356 ± 0.033 | 1.363 ± 0.034
318.15 K | 1.189 ± 0.03 | 1.196 ± 0.03 | 1.204 ± 0.03 | 1.212 ± 0.03 | 1.221 ± 0.03 | 1.231 ± 0.03 | 1.242 ± 0.031 | 1.254 ± 0.031 | 1.267 ± 0.031
323.15 K | 1.074 ± 0.027 | 1.085 ± 0.027 | 1.097 ± 0.028 | 1.11 ± 0.028 | 1.123 ± 0.028 | 1.14 ± 0.029 | 1.157 ± 0.029 | 1.177 ± 0.029 | 1.198 ± 0.03

CCCCOCCO + CCc1ccccc1
viscosity [mPa·s], 101 kPa
Details | 298.15 K | 308.15 K
x1 = 0.0546 | 0.678 ± 0.012 | 0.568 ± 0.01
x1 = 0.1505 | 0.769 ± 0.013 | 0.643 ± 0.011
x1 = 0.2513 | 0.877 ± 0.015 | 0.732 ± 0.013
x1 = 0.3501 | 1.003 ± 0.017 | 0.835 ± 0.014
x1 = 0.4528 | 1.161 ± 0.019 | 0.961 ± 0.016
x1 = 0.4982 | 1.24 ± 0.02 | 1.025 ± 0.017
x1 = 0.55 | 1.339 ± 0.021 | 1.103 ± 0.018
x1 = 0.6497 | 1.56 ± 0.025 | 1.277 ± 0.021
x1 = 0.7511 | 1.831 ± 0.029 | 1.487 ± 0.024
x1 = 0.8507 | 2.156 ± 0.033 | 1.736 ± 0.028
x1 = 0.9614 | 2.601 ± 0.04 | 2.071 ± 0.033

CCCCCCCC(=O)OCC(COC(=O)CCCCCCC)OC(=O)CCCCCCC + CCCCO
viscosity [mPa·s], 101.33 kPa
Details | x1 = 0.1 | x1 = 0.2 | x1 = 0.3 | x1 = 0.4 | x1 = 0.5 | x1 = 0.6 | x1 = 0.7 | x1 = 0.8 | x1 = 0.9
298 K | 3.87 ± 0.05 | 5.49 ± 0.07 | 7.15 ± 0.09 | 8.84 ± 0.12 | 10.54 ± 0.15 | 12.28 ± 0.18 | 14.02 ± 0.22 | 16.05 ± 0.27 | 18 ± 0.32
303 K | 3.4 ± 0.1 | 4.73 ± 0.06 | 6.13 ± 0.08 | 7.53 ± 0.1 | 8.91 ± 0.12 | 10.29 ± 0.15 | 11.73 ± 0.18 | 13.34 ± 0.22 | 14.82 ± 0.26
308 K | 2.97 ± 0.04 | 4.12 ± 0.05 | 5.28 ± 0.07 | 6.46 ± 0.08 | 7.57 ± 0.1 | 8.74 ± 0.13 | 9.89 ± 0.15 | 11.2 ± 0.18 | 12.39 ± 0.22
313 K | 2.62 ± 0.03 | 3.61 ± 0.04 | 4.59 ± 0.06 | 5.56 ± 0.07 | 6.51 ± 0.09 | 7.48 ± 0.11 | 8.44 ± 0.13 | 9.52 ± 0.16 | 10.52 ± 0.18
